Measurements taken from the NIST ThermoML archive (doi:10.1016/j.jct.2008.06.009).

Assay: xn = mol fraction of the nth substance listed
Conditions: Liquid, Bellows volumetry

N [ammonia] + O
mass density [kg/m3]
Conditions | x1 = 0.1048 | x1 = 0.2046 | x1 = 0.3807 | x1 = 0.5565 | x1 = 0.7008 | x1 = 0.801 | x1 = 0.9102 | x1 = 1
450 K, 10000 kPa | 843.9 | 796.9 | 708.1 | 608.5 | – | – | – | –
450 K, 20000 kPa | 850.4 | 804.3 | 718.8 | 625.9 | 534.7 | 458.5 | – | –
450 K, 30000 kPa | 856.6 | 811 | 728.1 | 639.8 | 557.7 | 495.6 | 422 | 355.3
450 K, 40000 kPa | 862.7 | 817.8 | 736.8 | 651.6 | 575.2 | 519.2 | 457.5 | 403.7
450 K, 50000 kPa | 868.5 | 823.8 | 744.9 | 662.2 | 589.4 | 537.4 | 481.3 | 433.4
450 K, 60000 kPa | 873.9 | 829.6 | 751.5 | 671.3 | 601.8 | 552.2 | 499.7 | 455.2
450 K, 70000 kPa | 879.1 | 835.4 | 758.3 | 680.1 | 612.5 | 564.9 | 514.8 | 472.6
450 K, 80000 kPa | 884.2 | 840.9 | 765.1 | 687.8 | 622.2 | 576 | 527.7 | 487.4
450 K, 90000 kPa | 889.2 | 845.9 | 771.1 | 695.3 | 631.2 | 586.2 | 539.1 | 500.2
450 K, 100000 kPa | 893.9 | 850.6 | 777.1 | 702.2 | 639.2 | 595.2 | 549.2 | 511.7
450 K, 120000 kPa | 902.7 | 860.3 | 788.1 | 714.8 | 654 | 611.5 | 566.9 | 531.4
450 K, 140000 kPa | 911.3 | 868.9 | 798.6 | 726.2 | 666.9 | 625.9 | 582.2 | 548.2
450 K, 160000 kPa | 919.5 | 877.1 | 807.9 | 736.6 | 678.7 | 638.7 | 595.6 | 563.1
450 K, 180000 kPa | 927 | 885.1 | 817.2 | 746.2 | 689.4 | 650.1 | 607.8 | 576.3
450 K, 200000 kPa | 934.3 | 892.2 | 825.3 | 755.2 | 699.3 | 660.9 | 618.7 | 588.2
500 K, 10000 kPa | 782.5 | 728.2 | – | – | – | – | – | –
500 K, 20000 kPa | 792.5 | 740.4 | 641.7 | 517 | – | – | – | –
500 K, 30000 kPa | 801.3 | 751.1 | 658.5 | 551.1 | 447.5 | – | – | –
500 K, 40000 kPa | 809.6 | 760.6 | 672.4 | 574 | 487.8 | 422 | – | –
500 K, 50000 kPa | 817.3 | 769.5 | 684.3 | 591.7 | 514.1 | 456.2 | – | 350.9
500 K, 60000 kPa | 824.3 | 777.5 | 695.3 | 606.4 | 534.1 | 480.7 | 426.9 | 384.9
500 K, 70000 kPa | 831.3 | 785.1 | 704.8 | 619 | 550.6 | 499.8 | 450 | 410.1
500 K, 80000 kPa | 837.7 | 792.1 | 713.9 | 630.1 | 564.5 | 515.8 | 468.5 | 430.2
500 K, 90000 kPa | 843.7 | 798.6 | 721.8 | 640.2 | 576.7 | 529.6 | 484.1 | 446.9
500 K, 100000 kPa | 849.7 | 805 | 729.7 | 649.4 | 587.6 | 541.6 | 497.6 | 461.5
500 K, 120000 kPa | 860.7 | 816.7 | 743.7 | 665.7 | 606.7 | 562.5 | 520.1 | 485.8
500 K, 140000 kPa | 870.8 | 827.5 | 756.6 | 679.9 | 623.1 | 580.1 | 538.9 | 505.9
500 K, 160000 kPa | 880.6 | 837.4 | 768.3 | 692.9 | 637.4 | 595.3 | 555 | 523.1
500 K, 180000 kPa | 889.4 | 846.7 | 779.3 | 704.5 | 650.4 | 608.9 | 569.2 | 538.3
500 K, 200000 kPa | 897.9 | 855.4 | 789.2 | 715 | 662.1 | 621.2 | 581.9 | 551.9
